Key:
gastrin-17 [1] = test: Gastrin-17 stabilization by sulfone compounds in horse serum (Example 3); assay type: biochemical, human gastrin-17 (GAST_HUMAN) in horse serum; conditions: for ability to stabilize gastrin-17 in serum / stabilizing effect on gastrin-17 compared with DMSO: 5% [v/v], horse serum, room temperature, 5 h and 24 h
Procedure: Gastrin-17 (GAST_HUMAN(77-92)[Pyr-77]amid) was solved in horse serum with a concentration of 2.0 mg/ml and diluted to 0.22 mg/mL.
This solution was spiked respectively to reach a concentration of gastrin-17 of 0.1 mg/ml in (a) horse serum with added 5% [v/v]H2O; (b) horse serum with added 5% [v/v] DMSO (CAS: 67-68-5); (c) horse serum added 5% [v/v] Sulfolane (CAS: 126-33-0); d) horse serum with added 5% [v/v]trimethylene sulfone (CAS: 5687-92-3); e) horse serum with added 5% [v/v]1,1-dioxoisothiazolidine (CAS: 5908-62-3); f) horse serum with added 5% [v/v]1,4-butanesultone (CAS: 1633-83-6); g) horse serum with added 5% [v/v]tetrahydro-2H-thiopyran-4-ol 1,1-dioxide (CAS: 194152-05-1); h) horse serum with added 5% [v/v]2-methyltetrahydrothiophene 1,1-dioxide (CAS: 1003-46-9); i) horse serum with added 5% [v/v]ethylmethylsulfone (CAS: 594-43-4). The samples were then stored/incubated at room temperature. Samples were taken after 0 h, 5 h and 24 h. The further experiment was performed as described in Example 1.

[2] = cited from earlier work; for stability against oxidation compared with DMSO: Wasmus S and Vielstich W, Electrochimica Acta 1993
peptides A, B and C [3] = test: Concentration dependence of stabilization of peptides A, B and C in horse serum (Example 2); assay type: biochemical; conditions: for concentration dependence of stabilization, peptides A, B and C / stabilization of peptides A, B and C: 1.25%, 2.5% and 5% (v/v); for stabilization of peptides A, B and C: room temperature, 0 h and 5 h
Procedure: (§1) Gastrin-17 (GAST_HUMAN(77-92)[Pyr-77]amid) and MS Qual/Quant QC-Mix (Mat. No.: MSQC2, Sigma Aldrich; comprises peptides A, B and C) was solved in horse serum with a concentration of 2.0 mg/ml and diluted to 0.22 mg/mL.
(§2) This solution was spiked respectively to reach a concentration of 0.1 mg/ml in (a) horse serum with added 5% [v/v] DMSO (CAS: 67-68-5); (b) horse serum with added 5% [v/v] Sulfolane (CAS: 126-33-0); c) horse serum with added 2.5% [v/v] DMSO (CAS: 67-68-5); d) horse serum with added 2.5% [v/v] Sulfolane (CAS: 126-33-0); e) horse serum with added 1.25% [v/v] DMSO (CAS: 67-68-5); f) horse serum with added 1.25% [v/v] Sulfolane (CAS: 126-33-0); The samples were stored at room temperature. A sample was taken 0 h and 5 h after spiking. The further experiment was conducted as described in Example 1.

gastrin-17 [4] = test: Concentration dependence of gastrin-17 stabilization in horse serum (Example 2); assay type: biochemical, human gastrin-17 (GAST_HUMAN) in horse serum; conditions: for concentration dependence of stabilization, gastrin-17 / stabilization of gastrin-17: 1.25%, 2.5% and 5% (v/v); for stabilization of gastrin-17: room temperature, 0 h and 5 h
Procedure: as §1, §2

peptides A, B and C [5] = test: Stability of peptides A, B and C in horse serum with 5% additive (Example 1, HPLC-MS); assay type: biochemical; conditions: for protection ability on different peptides (A, B, C): room temperature, 0 h, 5 h, 23 h
Procedure: (§3) Gastrin-17 (GAST_HUMAN(77-92)[Pyr-77]amid) and MS Qual/Quant QC-Mix (Mat. No.: MSQC2, Sigma Aldrich, a peptide mix comprising peptides A, B and C as referred to herein) was solved in horse serum with a concentration of 2.0 mg/ml and diluted to 0.22 mg/mL.
(§4) This solution was spiked respectively to reach a final peptide concentration of 0.1 mg/ml in (a) horse serum with added 5% [v/v]H2O; (b) horse serum with added 5% [v/v] DMSO (CAS: 67-68-5); (c) horse serum with added 5% [v/v] Sulfolane (CAS: 126-33-0). The samples were stored at room temperature. Samples were taken at three times after spiking (0 h, 5 h and 23 h) and centrifuged with a Microcon-10 filter (Ultracel PL-10, Regenerated Cellulose 10,000 NMWL) for 10 min at 4 °C and 10,000 rpm. Afterwards the filtrate was separated by a liquid chromatography (HPLC) coupled with MS detector (QTOF Premier, Waters). The separation was done by a reverse phase liquid chromatography (Vydac 218TP C18, 5 μm, 2.1×150 mm, column temperature 50 °C) with a linear gradient to 100% of eluent B over 17 minutes. The eluent A was water with 0.025% [v/v]trifluoroacetic acid and eluent B was acetonitrile with 0.023% [v/v]trifluoroacetic acid. The quantification was done by using […]=1049.9 Da for Gastrin-17, [M+2H]^2+=671.8 Da for peptid A, [M+2H]^2+=751.4 Da for peptid B and [M+2H]^2+=802.9 Da for peptid C. Peptid A, B and C are exemplary peptides contained in the peptid-Mix MS Qual/Quant QC-Mix (Mat. No.: MSQC2, Sigma Aldrich). The peptide mix MS Qual/Quant QC-Mix (Mat. No.: MSQC2, Sigma Aldrich) contained peptides of a length of 4 to 26 amino acids.

gastrin-17 [6] = test: Gastrin-17 stability in horse serum with 5% additive (Example 1, HPLC-MS); assay type: biochemical, human gastrin-17 (GAST_HUMAN) in horse serum; conditions: for protection ability on gastrin-17: room temperature, 0 h, 5 h, 23 h
Procedure: as §3, §4

[7] = 5% [v/v], especially after longer incubation (23 h)

## O=S1(=O)CCCN1 [1,1-dioxoisothiazolidine]
gastrin-17 [1]
  ability to stabilize gastrin-17 in serum: have the ability to stabilize peptides
[2]
  stability against oxidation compared with DMSO: more stable against oxidation than DMSO

## O=S1(=O)CCCCO1 [1,4-butanesultone]
gastrin-17 [1]
  ability to stabilize gastrin-17 in serum: have the ability to stabilize peptides
  stabilizing effect on gastrin-17 compared with DMSO: superior to the DMSO stabilizing effect
[2]
  stability against oxidation compared with DMSO: more stable against oxidation than DMSO

## C[S+](C)[O-] [DMSO, dimethylsulfoxid, reference compound]
Peptides A, B and C [3]; 5 h
  concentration dependence of stabilization, peptides A, B and C: stabilization increased with the concentration
Peptides A, B and C [3]
  stabilization of peptides A, B and C: stabilized each of the peptides
gastrin-17 [4]; 5 h
  concentration dependence of stabilization, gastrin-17: stabilization increased with the concentration
gastrin-17 [4]
  stabilization of gastrin-17: stabilized each of the peptides
[2]; background statement
  oxidation instability: rather instable
Peptides A, B and C [5]; 5% [v/v]
  protection ability on different peptides (A, B, C): both exhibit protection ability
gastrin-17 [6]; 5% [v/v]
  protection ability on gastrin-17: both exhibit protection ability

## O=S1(=O)CCCC1 [Sulfolane]
Peptides A, B and C [3]; 5 h
  concentration dependence of stabilization, peptides A, B and C: stabilization increased with the concentration
Peptides A, B and C [3]
  stabilization of peptides A, B and C: stabilized each of the peptides
Peptides A, B and C [3]; 1.25-5% (v/v), 5 h
  overall stabilization compared with DMSO, peptides A, B and C: overall better peptide stabilization ability
gastrin-17 [4]; 5 h
  concentration dependence of stabilization, gastrin-17: stabilization increased with the concentration
gastrin-17 [4]
  stabilization of gastrin-17: stabilized each of the peptides
gastrin-17 [4]; 1.25-5% (v/v), 5 h
  overall stabilization compared with DMSO, gastrin-17: overall better peptide stabilization ability
gastrin-17 [4]; FIG. 3, 5% vs 2.5% and 1.25% sulfolane or DMSO, legend says only "Peptide"
  stability improvement (MassSpec peak area): improves stability best
gastrin-17 [1]
  ability to stabilize gastrin-17 in serum: have the ability to stabilize peptides
  stabilizing effect on gastrin-17 compared with DMSO: superior to the DMSO stabilizing effect
gastrin-17 [1]; ca. 24 h, similar concentrations like DMSO, serum derived degradation
  protection of gastrin peptide over a longer period compared with DMSO: can protect the Gastrin Peptide better over a longer period
[2]
  stability against oxidation compared with DMSO: more stable against oxidation than DMSO
[2]; no experiment described at the place
  stability of Sulfolane compared with DMSO based upon oxidation: more stable than DMSO based upon oxidation
Peptides A, B and C [5]; [7]
  protection of peptides A, B, C compared with DMSO: exceeds the DMSO protection outcome
Peptides A, B and C [5]; 5% [v/v]
  protection ability on different peptides (A, B, C): both exhibit protection ability
Peptides A, B and C [5]; FIG. 2, 5% [v/v] vs no additive and 5% DMSO
  signal stability over time (MassSpec peak area), peptides A, B and C: better signal stability over time
gastrin-17 [6]; [7]
  protection of gastrin-17 compared with DMSO: exceeds the DMSO protection outcome
gastrin-17 [6]; 5% [v/v]
  protection ability on gastrin-17: both exhibit protection ability
gastrin-17 [6]; FIG. 1, 5% [v/v] vs no additive and 5% DMSO
  signal stability over time (MassSpec peak area), gastrin-17: better signal stability over time

## CCS(C)(=O)=O [ethylmethylsulfone]
gastrin-17 [1]
  ability to stabilize gastrin-17 in serum: have the ability to stabilize peptides
  stabilizing effect on gastrin-17 compared with DMSO: superior to the DMSO stabilizing effect
[2]
  stability against oxidation compared with DMSO: more stable against oxidation than DMSO

## CC1CCCS1(=O)=O (stereo not drawn) [methyltetrahydrothiophene 1,1-dioxide, 2-methyltetrahydrothiophene 1,1-dioxide]
gastrin-17 [1]
  ability to stabilize gastrin-17 in serum: have the ability to stabilize peptides
  stabilizing effect on gastrin-17 compared with DMSO: superior to the DMSO stabilizing effect
[2]
  stability against oxidation compared with DMSO: more stable against oxidation than DMSO

## O=S1(=O)CCC(O)CC1 [tetrahydro-2H-thiopyran-4-ol 1,1-dioxide]
gastrin-17 [1]
  ability to stabilize gastrin-17 in serum: have the ability to stabilize peptides
  stabilizing effect on gastrin-17 compared with DMSO: superior to the DMSO stabilizing effect
[2]
  stability against oxidation compared with DMSO: more stable against oxidation than DMSO

## O=S1(=O)CCC1 [trimethylene sulfone]
gastrin-17 [1]
  ability to stabilize gastrin-17 in serum: have the ability to stabilize peptides
  stabilizing effect on gastrin-17 compared with DMSO: superior to the DMSO stabilizing effect
[2]
  stability against oxidation compared with DMSO: more stable against oxidation than DMSO

Reference: patent US20260365991A1, “COMPOUNDS FOR STABILIZING PEPTIDES IN BIOLOGICAL SAMPLES” (Roche Diagnostics Operations, Inc., priority 2023, published 2026)
